Measurements: PMC12216181 (Nature Communications, 2025)

Tests used:
EV-D68 [1] = conditions: AG129 mice; cited from earlier work
EV-D68 [2] = conditions: EV-D68 animal infection models; cited from earlier work
EV-D68 [3] = test: IHC staining of spinal cord sections of EV-D68-infected mice; type: in vivo, Swiss Webster pups; conditions: 8 DPI, 24-h delayed treatment model
[4] = system: EV-D68 US/MO/14-18947 passaged viruses; test: Serial passage experiment 1: drug sensitivity of passaged viruses; type: cell-based, Enterovirus D68; conditions: Enterovirus D, CPE assay
[5] = Tolerability in uninfected Jun6504-treated mice; type: in vivo; conditions: 50 mg/kg dose, uninfected treated animals
EV-D68 US/MO/14-18947 [6] = test: Time-of-addition experiment, single cycle of EV-D68 replication in RD cells; type: cell-based, Enterovirus D68; conditions: 3 µM
EV-D68 US/MO/14-18947 [7] = test: Plaque assay, EV-D68 US/MO/14-18947 in RD cells; type: cell-based; conditions: Enterovirus D, EVD68, RD
EV-D68 US/IL/14-18952 = test: EV-D68 infection neonatal mouse model; type: in vivo, Swiss Webster mice; conditions: for Weight at DPI14: 50 mg/kg i.p. daily
[8] = Drug concentration in the spinal cord by LC-MS/MS; type: in vivo, Swiss Webster mouse pups; conditions: Swiss Webster, mouse, ip, 50 mg/kg, one hour after the intraperitoneal injection
EV-A71 Tainan/4643/1998 = test: Plaque assay, EV-A71 Tainan/4643/1998; type: cell-based; conditions: Enterovirus A, EVA71, plaque assay
EV-D68-associated AFM = conditions: patients with EV-D68-associated AFM; cited from earlier work
EV-D68 [9] = conditions: EV-D68 infection neonatal mouse model; cited from earlier work

SMILES: CCOC(=O)c1ccc(OCCC2CCN(c3ccc(C)nn3)CC2)cc1 [pirodavir]
- therapeutic efficacy (EV-D68 [1]): no therapeutic efficacy

SMILES: CC(C)S(=O)(=O)n1c(N)nc2ccc(/C(=N/O)c3ccccc3)cc21 [enviroxime]
- therapeutic efficacy (EV-D68 [1]): no therapeutic efficacy

SMILES: NC(=O)c1ncn([C@@H]2O[C@H](CO)[C@@H](O)[C@H]2O)n1 [ribavirin]
- therapeutic efficacy (EV-D68 [1]): no therapeutic efficacy

SMILES: N=C(N)N [guanidine]
- in vivo antiviral activity (EV-D68 [2]): have shown in vivo antiviral activity

SMILES: CC(C)n1ncc2c(C(=O)NCC3(C)CNC3)cc(C3CC3)nc21 [Jun6504]
- EV-D68-infected (NeuN+) neurons in the cervical enlargement (EV-D68 [3]): no infected (NeuN+) neurons were observed
- ChAT-positive motor neurons in lumbar spinal cord (EV-D68 [3]; treated animals with paralysis score 0): many ChAT-positive motor neurons present
- EC50 ([4]; EVD68, P3 virus, selection pressure 400 nM): 800 nM
- EC50 ([4]; EVD68, P6 virus, selection pressure 3.2 μM): 3380 nM
- tolerability [5]: no signs of pain, weight loss, or death were observed
- effect on antiviral potency (EV-D68 US/MO/14-18947 [6]; added at 5 hpi): significant reduction in the antiviral potency
- effect on efficacy (EV-D68 US/MO/14-18947 [6]; added at 7 hpi): almost complete loss of efficacy
- effect on EV-D68 amplification (EV-D68 US/MO/14-18947 [6]; added before or at 3 h post-infection): completely inhibited EV-D68 amplification
- EC50 (EV-D68 US/MO/14-18947 [7]): 130 nM
- Weight at DPI14 (EV-D68 US/IL/14-18952; 24-h delayed treatment model, control 8.65 ± 0.23 g): 9.59 ± 0.27 g
- Viral titer in spinal cord (EV-D68 US/IL/14-18952; DPI5 after 4 daily doses, 24-h delayed model, control 19,834 ± 11,519): 4520 ± 1796 TCID50
- Weight at DPI14 (EV-D68 US/IL/14-18952; immediate treatment model, control 7.92 ± 0.46 g): 9.29 ± 0.14 g
- concentration at 1 h [8]: ~575 ng/g
- EC50 (EV-A71 Tainan/4643/1998): 220 nM

SMILES: CNCCC(Oc1ccc(C(F)(F)F)cc1)c1ccccc1 (stereo not shown) [fluoxetine]
- neurological outcomes (EV-D68-associated AFM): failed to improve neurological outcomes
- effect on motor impairment and viral titers (EV-D68 [9]): did not reduce motor impairment or viral titers in the muscle and spinal cord

SMILES: CCOC(=O)/C=C/[C@H](C[C@@H]1CCNC1=O)NC(=O)[C@@H](CC(=O)[C@@H](NC(=O)c1cc(C)on1)C(C)C)Cc1ccc(F)cc1 [rupintrivir]
- therapeutic efficacy (EV-D68 [1]): no therapeutic efficacy

SMILES: Cc1cc(CCCOc2c(C)cc(-c3noc(C(F)(F)F)n3)cc2C)on1 [pleconaril]
- therapeutic efficacy (EV-D68 [1]): no therapeutic efficacy
